Here are results for 8 compounds from patent US8927507B2, “Selective glycosidase inhibitors and uses thereof” (priority 2011, dated 2015).

One experiment has as its target human O-GlcNAcase (Homo sapiens (Human), UniProt O60502). Kind of experiment: Assay for determination of Ki values for inhibition of O-GlcNAcase activity (fluorescence-based hOGA). Type of experiment: biochemical. The note with it: purified human O-GlcNAcase 0.7 nM, 4-Methylumbelliferyl N-acetyl-β-D-glucosaminide substrate, pH 7.0, Cheng-Prusoff. The procedure:
Experimental Procedure for Kinetic Analyses: Enzymatic reactions were carried out in a reaction containing 50 mM NaH2PO4, 100 mM NaCl and 0.1% BSA (pH 7.0) using 2 mM 4-Methylumbelliferyl N-acetyl-β-D-glucosaminide dihydrate (Sigma M2133) dissolved in ddH2O, as a substrate. The amount of purified human O-GlcNAcase enzyme used in the reaction was 0.7 nM. Test compound of varying concentrations was added to the enzyme prior to initiation of the reaction. The reaction was performed at room temperature in a 96-well plate and was initiated with the addition of substrate. The production of fluorescent product was measured every 60 sec for 45 min with a Tecan Infinite M200 plate-reader with excitation at 355 nm and emission detected at […], with 4-Methylumbelliferone (Sigma M1381) used to produce a standard curve. The slope of product production was determined for each concentration of compound tested and plotted, using standard curve fitting algorithms for sigmoidal dose response curves. The values for a four parameter logistic curve fit of the data were determined.
K1 values were determined using the Cheng-Prusoff equation; the Km of O-GlcNAcase for substrate was 0.2 mM.

Another experiment addresses O-GlcNAcase (Rattus norvegicus (Rat), UniProt Q8VIJ5). As to the kind of experiment: Cell-based ELISA of O-GlcNAcylated protein (RL-2 antibody) in PC-12 cells. The note with it: rat PC-12 cells, 24 h treatment, O-GlcNAcylated protein detected with RL-2 antibody. The text has this:
Inhibition of O-GlcNAcase, which removes O-GlcNAc from cellular proteins, results in an increase in the level of O-GlcNAcylated protein in cells. An increase in O-GlcNAcylated protein can be measured by an antibody, such as RL-2, that binds to O-GlcNAcylated protein. The amount of O-GlcNAcylated protein:RL2 antibody interaction can be measured by enzyme linked immunosorbant assay (ELISA) procedures.
A variety of tissue culture cell lines, expressing endogenous levels of O-GlcNAcase, can be utilized; examples include rat PC-12, and human U-87, or SK-N-SH cells. In this assay, rat PC-12 cells were plated in 96-well plates with approximately 10,000 cells/well. […] If desired, the total protein concentration of samples was determined using 20 μl of the sample using the BCA method.
The ELISA portion of the assay was performed in a black Maxisorp 96-well plate that was coated overnight at 4° C. with 100 μL/well of the cell lysate (1:10 dilution of the lysate with PBS containing protease inhibitors, phosphatase inhibitors, and PMSF). […] The detection reaction was incubated for 15 minutes at room temperature and then read with excitation at 530 nm and emission at 590 nm.
The amount of O-GlcNAcylated protein, as detected by the ELISA assay, was plotted for each concentration of test compound using standard curve fitting algorithms for sigmoidal dose response curves. […]
For orientation: An ELISA detects its analyte on a solid surface through an enzyme-linked reagent.

Sequence of human O-GlcNAcase (O60502 whole entry): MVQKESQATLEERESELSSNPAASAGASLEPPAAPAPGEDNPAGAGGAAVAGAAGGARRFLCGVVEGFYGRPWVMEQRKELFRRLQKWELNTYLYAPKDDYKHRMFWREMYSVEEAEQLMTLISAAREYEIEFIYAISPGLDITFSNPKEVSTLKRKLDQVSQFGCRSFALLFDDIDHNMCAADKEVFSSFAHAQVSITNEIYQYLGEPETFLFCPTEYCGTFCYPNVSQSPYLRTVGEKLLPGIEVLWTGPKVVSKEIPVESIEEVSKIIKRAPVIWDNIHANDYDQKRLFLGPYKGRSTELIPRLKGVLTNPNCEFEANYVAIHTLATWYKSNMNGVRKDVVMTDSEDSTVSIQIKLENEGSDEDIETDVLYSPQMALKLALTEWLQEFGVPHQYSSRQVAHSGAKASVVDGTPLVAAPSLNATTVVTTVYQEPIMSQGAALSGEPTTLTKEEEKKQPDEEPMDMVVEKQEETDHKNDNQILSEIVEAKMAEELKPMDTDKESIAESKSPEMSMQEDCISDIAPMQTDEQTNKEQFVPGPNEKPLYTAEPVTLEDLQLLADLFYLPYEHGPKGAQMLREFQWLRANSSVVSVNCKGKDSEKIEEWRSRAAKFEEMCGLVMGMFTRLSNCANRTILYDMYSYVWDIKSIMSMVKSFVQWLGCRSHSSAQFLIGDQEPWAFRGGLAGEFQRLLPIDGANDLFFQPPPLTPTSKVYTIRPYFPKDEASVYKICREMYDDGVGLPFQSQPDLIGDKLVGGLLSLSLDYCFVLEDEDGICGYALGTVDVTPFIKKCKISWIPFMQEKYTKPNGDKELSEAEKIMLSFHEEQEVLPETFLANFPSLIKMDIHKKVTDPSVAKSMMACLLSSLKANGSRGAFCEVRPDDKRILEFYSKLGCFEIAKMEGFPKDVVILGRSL
Sequence of O-GlcNAcase (Q8VIJ5 whole entry): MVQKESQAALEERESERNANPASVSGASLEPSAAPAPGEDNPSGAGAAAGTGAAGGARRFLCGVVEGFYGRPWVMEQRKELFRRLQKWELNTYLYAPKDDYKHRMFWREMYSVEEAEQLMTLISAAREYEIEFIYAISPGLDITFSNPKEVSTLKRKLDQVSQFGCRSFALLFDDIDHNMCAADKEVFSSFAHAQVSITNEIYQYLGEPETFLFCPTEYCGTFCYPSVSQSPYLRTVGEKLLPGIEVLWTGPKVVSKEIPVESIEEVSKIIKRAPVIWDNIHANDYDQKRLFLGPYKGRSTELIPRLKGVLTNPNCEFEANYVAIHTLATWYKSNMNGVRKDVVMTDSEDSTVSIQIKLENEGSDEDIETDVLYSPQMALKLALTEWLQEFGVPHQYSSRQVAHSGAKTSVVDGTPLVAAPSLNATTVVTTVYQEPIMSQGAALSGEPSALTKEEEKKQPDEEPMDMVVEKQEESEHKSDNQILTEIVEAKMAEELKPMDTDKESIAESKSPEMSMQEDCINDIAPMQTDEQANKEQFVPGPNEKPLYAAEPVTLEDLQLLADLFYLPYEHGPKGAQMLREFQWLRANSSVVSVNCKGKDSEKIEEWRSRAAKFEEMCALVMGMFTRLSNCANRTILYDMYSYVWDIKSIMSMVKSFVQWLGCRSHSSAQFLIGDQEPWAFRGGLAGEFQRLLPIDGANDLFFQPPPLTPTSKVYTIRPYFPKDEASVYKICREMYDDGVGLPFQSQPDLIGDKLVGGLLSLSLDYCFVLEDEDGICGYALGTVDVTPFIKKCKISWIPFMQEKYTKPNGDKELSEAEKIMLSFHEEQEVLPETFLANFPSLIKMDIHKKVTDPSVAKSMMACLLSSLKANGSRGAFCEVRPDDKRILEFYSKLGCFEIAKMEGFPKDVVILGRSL

The term Ki denotes the equilibrium dissociation constant of an inhibitor or competing ligand from its target. High values mean weaker binding, low ones tighter binding. `OC[C@H]1O[C@@H]2SC(NCCCF)=N[C@@H]2[C@@H](O)[C@@H]1O` [Example 2, (3aR,5R,6S,7R,7aR)-2-((3-fluoropropyl)amino)-5-(hydroxymethyl)-5,6,7,7a-tetrahydro-3aH-pyrano[3,2-d]thiazole-6,7-diol]: the Ki on human O-GlcNAcase amounted to 15 nM. This counts as double-digit nanomolar. On the same count and under the same terms, for `OC[C@H]1O[C@@H]2SC(NCC3CC3)=N[C@@H]2[C@@H](O)[C@@H]1O` [Example 11, (3aR,5R,6S,7R,7aR)-2-((cyclopropylmethyl)amino)-5-(hydroxymethyl)-5,6,7,7a-tetrahydro-3aH-pyrano[3,2-d]thiazole-6,7-diol] the value was 15 nM; for `OC[C@H]1O[C@@H]2SC(NCCC3CC3)=N[C@@H]2[C@@H](O)[C@@H]1O` [Example 3, (3aR,5R,6S,7R,7aR)-2-(2-Cyclopropylethylamino)-5-(hydroxymethyl)-5,6,7,7a-tetrahydro-3aH-pyrano[3,2-d]thiazole-6,7-diol], 4.4 nM. On to `CCNC(=O)NC1=N[C@@H]2[C@@H](O)[C@H](O)[C@@H](CO)O[C@@H]2S1` [Example 29, 1-((3aR,5R,6S,7R,7aR)-6,7-dihydroxy-5-(hydroxymethyl)-5,6,7,7a-tetrahydro-3aH-pyrano[3,2-d]thiazol-2-yl)-3-ethylurea], for which, on human O-GlcNAcase, the Ki came out at 22 nM. Still for that read-out and setting: for `CCC(=O)NC1=N[C@@H]2[C@@H](O)[C@H](O)[C@@H](CO)O[C@@H]2S1` [Example 22, N-((3aR,5R,6S,7R,7aR)-6,7-dihydroxy-5-(hydroxymethyl)-5,6,7,7a-tetrahydro-3aH-pyrano[3,2-d]thiazol-2-yl)propionamide] the value was 74 nM; for `CON(C)C1=N[C@@H]2[C@@H](O)[C@H](O)[C@@H](CO)O[C@@H]2S1` [Example 18, (3aR,5R,6S,7R,7aR)-5-(hydroxymethyl)-2-(methoxy(methyl)amino)-5,6,7,7a-tetrahydro-3aH-pyrano[3,2-d]thiazole-6,7-diol], 11 nM. The term EC50 denotes the concentration needed to bring the measured effect to its halfway point. A lower EC50 goes with a more potent agent. For `C=CCN(C)C1=N[C@@H]2[C@@H](O)[C@H](O)[C@@H](CO)O[C@@H]2S1` [Example 16, (3aR,5R,6S,7R,7aR)-2-(allyl(methyl)amino)-5-(hydroxymethyl)-5,6,7,7a-tetrahydro-3aH-pyrano[3,2-d]thiazole-6,7-diol], the EC50 on O-GlcNAcase turned out to be 152 nM. Besides, the Ki on human O-GlcNAcase was 2.8 nM.

At O-GlcNAcase, `CCCN(C)C1=N[C@@H]2[C@@H](O)[C@H](O)[C@@H](CO)O[C@@H]2S1` [Example 15, (3aR,5R,6S,7R,7aR)-5-(hydroxymethyl)-2-(methyl(propyl)amino)-5,6,7,7a-tetrahydro-3aH-pyrano[3,2-d]thiazole-6,7-diol] had an EC50 of 196 nM. In addition, the affinity on human O-GlcNAcase corresponds to a Ki of 15 nM.
